Assay results reported in ChEMBL document CHEMBL3352660, “Design, synthesis and pharmacological evaluation of novel polycyclic heteroarene ethers as PDE10A inhibitors: part II” (Bioorg Med Chem Lett, 2014).

Assays:
Rattus norvegicus [1] = assay: Antipsychotic activity in Sprague-Dawley rat conditioned avoidance response model assessed as avoidance of shock at 3 mg/kg, ip measured after 30 mins relative to vehicle-treated control; assay type: functional; details: route intraperitoneal
Rattus norvegicus [2] = assay: Antipsychotic activity in Sprague-Dawley rat […] assessed as reversal of MK-801-induced locomotion at 3 mg/kg, ip administered 2 hrs prior to MK-801 challenge measured every 5 mins for 1 hr starting 15 mins post MK-801 injection relative to vehicle-treated control; assay type: functional; details: route intraperitoneal
Rattus norvegicus [3] = assay: Antipsychotic activity in Sprague-Dawley rat […] assessed as reversal of MK-801-induced stereotypy at 3 mg/kg, ip administered 2 hrs prior to MK-801 challenge measured every 5 mins for 1 hr starting 15 mins post MK-801 injection relative to vehicle-treated control; assay type: functional; details: route intraperitoneal
Rattus norvegicus [4] = assay: Antipsychotic activity in Sprague-Dawley rat […] assessed as reversal of MK-801-induced ataxia at 3 mg/kg, ip administered 2 hrs prior to MK-801 challenge measured every 5 mins for 1 hr starting 15 mins post MK-801 injection relative to vehicle-treated control; assay type: functional; details: route intraperitoneal
Rattus norvegicus [5] = assay: Antipsychotic activity in Sprague-Dawley rat prepulse inhibition deficit model assessed as reversal of MK-801-induced effect at 1 mg/kg, ip administered 20 mins prior to MK-801 challenge relative to vehicle-treated control; assay type: functional; parameters: scale not given: the % may be the effect or the level left; details: route intraperitoneal
[6] = molecular target: Dual 3',5'-cyclic-AMP and -GMP phosphodiesterase 11A (Homo sapiens) (UniProt Q9HCR9); assay: Inhibition of human recombinant PDE11A using [3H]-cAMP as substrate at 1 uM after 30 mins by two-step radiometric assay
Sequence of Dual 3',5'-cyclic-AMP and -GMP phosphodiesterase 11A (Homo sapiens) (Q9HCR9 whole entry, looked up): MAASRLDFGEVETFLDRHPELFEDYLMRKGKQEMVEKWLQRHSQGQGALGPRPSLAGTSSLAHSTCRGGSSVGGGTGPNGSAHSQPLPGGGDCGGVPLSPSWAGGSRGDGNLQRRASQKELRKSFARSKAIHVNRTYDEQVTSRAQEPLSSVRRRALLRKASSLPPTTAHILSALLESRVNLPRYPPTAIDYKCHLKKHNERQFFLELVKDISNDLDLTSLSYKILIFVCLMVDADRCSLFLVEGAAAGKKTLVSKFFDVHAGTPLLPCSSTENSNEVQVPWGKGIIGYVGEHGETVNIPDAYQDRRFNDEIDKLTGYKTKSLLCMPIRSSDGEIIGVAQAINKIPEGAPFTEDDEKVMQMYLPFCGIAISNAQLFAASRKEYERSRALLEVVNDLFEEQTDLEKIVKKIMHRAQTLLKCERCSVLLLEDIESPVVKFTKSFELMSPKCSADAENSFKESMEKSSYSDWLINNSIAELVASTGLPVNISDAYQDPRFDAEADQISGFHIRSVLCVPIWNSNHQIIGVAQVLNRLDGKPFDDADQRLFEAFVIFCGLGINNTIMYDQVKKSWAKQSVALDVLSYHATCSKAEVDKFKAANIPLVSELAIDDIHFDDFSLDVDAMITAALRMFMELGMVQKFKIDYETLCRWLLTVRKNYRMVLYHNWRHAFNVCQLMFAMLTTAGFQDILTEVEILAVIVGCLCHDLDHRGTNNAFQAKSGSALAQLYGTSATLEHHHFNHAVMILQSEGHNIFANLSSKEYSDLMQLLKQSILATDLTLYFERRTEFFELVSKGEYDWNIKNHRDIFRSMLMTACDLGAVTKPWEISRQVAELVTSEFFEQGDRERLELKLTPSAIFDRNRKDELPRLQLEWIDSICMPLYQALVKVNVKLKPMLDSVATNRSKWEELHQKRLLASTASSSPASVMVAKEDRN

[7] = molecular target: cGMP-specific 3',5'-cyclic phosphodiesterase (Homo sapiens) (UniProt O76074); assay: Inhibition of human recombinant PDE5A using […] as substrate at 10 uM after 30 mins by scintillation proximity assay
[8] = molecular target: 3',5'-cyclic-AMP phosphodiesterase 4D (Homo sapiens) (UniProt Q08499); assay: Inhibition of human recombinant PDE4D using [3H]-cAMP as substrate at 10 uM after 30 mins by two-step radiometric assay
Sequence of 3',5'-cyclic-AMP phosphodiesterase 4D (Homo sapiens) (Q08499 whole entry): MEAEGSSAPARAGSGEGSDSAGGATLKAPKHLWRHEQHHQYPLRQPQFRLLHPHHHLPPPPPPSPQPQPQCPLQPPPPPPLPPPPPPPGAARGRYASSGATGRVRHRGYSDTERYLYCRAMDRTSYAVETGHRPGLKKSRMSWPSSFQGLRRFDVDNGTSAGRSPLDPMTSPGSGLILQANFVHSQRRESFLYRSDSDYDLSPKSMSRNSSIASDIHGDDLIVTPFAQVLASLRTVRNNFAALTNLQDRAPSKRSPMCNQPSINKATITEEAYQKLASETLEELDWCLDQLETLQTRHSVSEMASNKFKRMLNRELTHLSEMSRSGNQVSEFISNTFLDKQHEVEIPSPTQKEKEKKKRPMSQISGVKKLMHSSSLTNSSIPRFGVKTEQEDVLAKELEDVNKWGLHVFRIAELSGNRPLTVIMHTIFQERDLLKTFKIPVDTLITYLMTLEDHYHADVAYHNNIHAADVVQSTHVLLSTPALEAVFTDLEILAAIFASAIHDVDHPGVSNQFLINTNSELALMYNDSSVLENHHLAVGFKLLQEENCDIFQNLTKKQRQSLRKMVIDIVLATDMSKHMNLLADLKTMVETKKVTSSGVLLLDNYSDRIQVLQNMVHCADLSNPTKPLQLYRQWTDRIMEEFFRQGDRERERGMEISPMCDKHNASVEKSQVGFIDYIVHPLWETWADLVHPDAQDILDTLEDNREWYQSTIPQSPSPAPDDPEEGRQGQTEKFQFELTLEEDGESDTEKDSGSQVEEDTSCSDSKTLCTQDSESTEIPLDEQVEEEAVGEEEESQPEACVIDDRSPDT

[9] = molecular target: Dual 3',5'-cyclic-AMP and -GMP phosphodiesterase 11A (Homo sapiens) (UniProt Q9HCR9); assay: Inhibition of human recombinant PDE11A using [3H]-cAMP as substrate at 10 uM after 30 mins by two-step radiometric assay
[10] = Metabolic stability in CD1 mouse liver microsomes incubated for 10 mins prior to NADPH addition measured after 60 mins by LC/MS/MS analysis; assay type: ADME; details: read-out: Stability
[11] = molecular target: 3',5'-cyclic-AMP phosphodiesterase 4D (Homo sapiens) (UniProt Q08499); assay: Inhibition of human recombinant PDE4D using [3H]-cAMP as substrate at 1 uM after 30 mins by two-step radiometric assay
[12] = Metabolic stability in Beagle dog liver microsomes incubated for 10 mins prior to NADPH addition measured after 60 mins by LC/MS/MS analysis; assay type: ADME, Canis lupus familiaris; details: read-out: Stability
[13] = molecular target: cGMP-dependent 3',5'-cyclic phosphodiesterase (Homo sapiens) (UniProt O00408); assay: Inhibition of human recombinant PDE2A using cAMP as substrate at 1 uM after 30 mins by HTRF method
Sequence of cGMP-dependent 3',5'-cyclic phosphodiesterase (Homo sapiens) (O00408 whole entry): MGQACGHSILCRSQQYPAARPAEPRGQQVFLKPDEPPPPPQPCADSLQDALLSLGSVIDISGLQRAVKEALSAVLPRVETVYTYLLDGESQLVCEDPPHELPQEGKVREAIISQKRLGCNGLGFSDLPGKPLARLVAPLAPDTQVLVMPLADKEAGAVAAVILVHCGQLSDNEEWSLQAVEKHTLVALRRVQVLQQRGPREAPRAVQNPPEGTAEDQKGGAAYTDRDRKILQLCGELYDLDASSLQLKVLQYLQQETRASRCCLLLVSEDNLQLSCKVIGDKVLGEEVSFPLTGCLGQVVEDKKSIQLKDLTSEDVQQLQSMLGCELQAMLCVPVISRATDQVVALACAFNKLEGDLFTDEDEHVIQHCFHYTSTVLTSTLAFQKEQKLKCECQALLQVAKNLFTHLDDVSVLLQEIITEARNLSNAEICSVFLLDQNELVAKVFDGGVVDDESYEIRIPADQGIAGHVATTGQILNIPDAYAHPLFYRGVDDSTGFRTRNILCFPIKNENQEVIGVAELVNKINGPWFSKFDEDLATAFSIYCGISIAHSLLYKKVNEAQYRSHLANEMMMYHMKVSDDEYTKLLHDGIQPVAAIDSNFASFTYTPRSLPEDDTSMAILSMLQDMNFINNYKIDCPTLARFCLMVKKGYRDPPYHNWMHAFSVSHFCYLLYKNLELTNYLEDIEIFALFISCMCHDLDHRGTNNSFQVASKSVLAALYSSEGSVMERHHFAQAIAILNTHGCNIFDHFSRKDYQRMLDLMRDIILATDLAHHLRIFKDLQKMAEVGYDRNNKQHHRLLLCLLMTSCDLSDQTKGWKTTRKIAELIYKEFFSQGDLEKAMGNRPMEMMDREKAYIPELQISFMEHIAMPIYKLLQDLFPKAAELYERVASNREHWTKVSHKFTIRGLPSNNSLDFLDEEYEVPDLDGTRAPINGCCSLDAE

[14] = molecular target: High affinity 3',5'-cyclic-AMP phosphodiesterase 7A (Homo sapiens) (UniProt Q13946); assay: Inhibition of human recombinant PDE7A using [3H]-cAMP as substrate at 1 uM after 30 mins by two-step radiometric assay
[15] = Metabolic stability in human liver microsomes incubated for 10 mins prior to NADPH addition measured after 60 mins by LC/MS/MS analysis; assay type: ADME; details: read-out: Stability
[16] = molecular target: T1, cAMP and cAMP-inhibited cGMP 3',5'-cyclic phosphodiesterase 10A (Rattus norvegicus, UniProt Q9QYJ6); assay: Inhibition of rat recombinant GST-tagged PDE10A using [3H]-cAMP as substrate by scintillation proximity assay
T1 sequence (Q9QYJ6 whole entry): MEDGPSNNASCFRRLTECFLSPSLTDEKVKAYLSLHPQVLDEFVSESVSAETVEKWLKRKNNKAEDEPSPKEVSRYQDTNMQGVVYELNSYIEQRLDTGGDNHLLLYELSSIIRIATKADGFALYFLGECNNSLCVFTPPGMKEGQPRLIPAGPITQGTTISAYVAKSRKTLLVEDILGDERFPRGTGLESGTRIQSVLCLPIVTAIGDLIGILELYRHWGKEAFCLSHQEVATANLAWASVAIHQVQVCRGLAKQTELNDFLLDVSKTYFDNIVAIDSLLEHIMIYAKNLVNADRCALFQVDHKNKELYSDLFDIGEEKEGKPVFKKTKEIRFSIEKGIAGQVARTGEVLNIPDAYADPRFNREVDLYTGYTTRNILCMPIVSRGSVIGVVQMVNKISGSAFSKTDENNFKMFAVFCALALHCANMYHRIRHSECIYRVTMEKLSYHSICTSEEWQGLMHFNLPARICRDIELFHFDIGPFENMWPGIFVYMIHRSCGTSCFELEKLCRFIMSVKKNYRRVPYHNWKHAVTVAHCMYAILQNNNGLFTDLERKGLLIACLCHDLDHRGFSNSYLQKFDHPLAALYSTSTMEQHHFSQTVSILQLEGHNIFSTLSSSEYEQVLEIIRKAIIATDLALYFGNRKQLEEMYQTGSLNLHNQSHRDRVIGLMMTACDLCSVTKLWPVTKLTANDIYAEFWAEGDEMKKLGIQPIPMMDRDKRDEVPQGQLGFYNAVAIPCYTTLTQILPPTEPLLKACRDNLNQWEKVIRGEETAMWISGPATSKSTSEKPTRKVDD

[17] = Metabolic stability in Wistar rat liver microsomes incubated for 10 mins prior to NADPH addition measured after 60 mins by LC/MS/MS analysis; assay type: ADME; details: read-out: Stability
[18] = molecular target: T2, cAMP and cAMP-inhibited cGMP 3',5'-cyclic phosphodiesterase 10A (Homo sapiens, UniProt Q9Y233); assay: Inhibition of human recombinant GST-tagged PDE10A using [3H]-cAMP as substrate at 1 uM after 30 mins by scintillation proximity assay
T2 sequence (Q9Y233 whole entry): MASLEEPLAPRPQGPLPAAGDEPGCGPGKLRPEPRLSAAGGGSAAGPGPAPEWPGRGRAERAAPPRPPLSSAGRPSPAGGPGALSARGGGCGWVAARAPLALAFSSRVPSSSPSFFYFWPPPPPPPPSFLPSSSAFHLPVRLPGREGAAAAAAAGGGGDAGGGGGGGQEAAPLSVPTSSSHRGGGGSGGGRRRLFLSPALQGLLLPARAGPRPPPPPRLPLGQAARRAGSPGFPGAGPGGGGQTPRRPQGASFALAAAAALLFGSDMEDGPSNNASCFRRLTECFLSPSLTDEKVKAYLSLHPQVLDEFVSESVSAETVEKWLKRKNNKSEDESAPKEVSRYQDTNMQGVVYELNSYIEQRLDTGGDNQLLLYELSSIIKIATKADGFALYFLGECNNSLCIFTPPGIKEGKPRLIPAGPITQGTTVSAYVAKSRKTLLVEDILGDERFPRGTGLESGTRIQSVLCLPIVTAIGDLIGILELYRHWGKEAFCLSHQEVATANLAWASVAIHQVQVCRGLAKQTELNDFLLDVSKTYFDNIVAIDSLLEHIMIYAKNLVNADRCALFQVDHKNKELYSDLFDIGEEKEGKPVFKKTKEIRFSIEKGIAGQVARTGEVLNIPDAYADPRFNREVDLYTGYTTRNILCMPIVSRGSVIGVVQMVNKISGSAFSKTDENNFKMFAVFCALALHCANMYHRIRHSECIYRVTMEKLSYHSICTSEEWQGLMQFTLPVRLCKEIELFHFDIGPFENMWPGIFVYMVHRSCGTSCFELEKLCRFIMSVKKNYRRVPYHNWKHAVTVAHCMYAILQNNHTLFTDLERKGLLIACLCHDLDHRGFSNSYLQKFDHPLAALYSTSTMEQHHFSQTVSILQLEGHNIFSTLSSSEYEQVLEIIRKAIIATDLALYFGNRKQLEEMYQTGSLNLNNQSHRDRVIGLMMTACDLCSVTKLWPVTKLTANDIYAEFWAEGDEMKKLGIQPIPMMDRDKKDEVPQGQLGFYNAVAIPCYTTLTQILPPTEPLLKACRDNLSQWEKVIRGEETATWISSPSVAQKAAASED

[19] = Metabolic stability in cynomolgus monkey liver microsomes incubated for 10 mins prior to NADPH addition measured after 60 mins by LC/MS/MS analysis; assay type: ADME, Macaca fascicularis; details: read-out: Stability
[20] = molecular target: T2, cAMP and cAMP-inhibited cGMP 3',5'-cyclic phosphodiesterase 10A; assay: Inhibition of human recombinant GST-tagged PDE10A using [3H]-cAMP as substrate after 30 mins by scintillation proximity assay
[21] = molecular target: High affinity 3',5'-cyclic-AMP phosphodiesterase 7A (Homo sapiens) (UniProt Q13946); assay: Inhibition of human recombinant PDE7A using [3H]-cAMP as substrate at 10 uM after 30 mins by two-step radiometric assay
[22] = molecular target: cGMP-inhibited 3',5'-cyclic phosphodiesterase 3A (Homo sapiens) (UniProt Q14432); assay: Inhibition of human recombinant PDE3A using cAMP as substrate at 1 uM after 30 mins by HTRF method
Sequence of cGMP-inhibited 3',5'-cyclic phosphodiesterase 3A (Homo sapiens) (Q14432 whole entry): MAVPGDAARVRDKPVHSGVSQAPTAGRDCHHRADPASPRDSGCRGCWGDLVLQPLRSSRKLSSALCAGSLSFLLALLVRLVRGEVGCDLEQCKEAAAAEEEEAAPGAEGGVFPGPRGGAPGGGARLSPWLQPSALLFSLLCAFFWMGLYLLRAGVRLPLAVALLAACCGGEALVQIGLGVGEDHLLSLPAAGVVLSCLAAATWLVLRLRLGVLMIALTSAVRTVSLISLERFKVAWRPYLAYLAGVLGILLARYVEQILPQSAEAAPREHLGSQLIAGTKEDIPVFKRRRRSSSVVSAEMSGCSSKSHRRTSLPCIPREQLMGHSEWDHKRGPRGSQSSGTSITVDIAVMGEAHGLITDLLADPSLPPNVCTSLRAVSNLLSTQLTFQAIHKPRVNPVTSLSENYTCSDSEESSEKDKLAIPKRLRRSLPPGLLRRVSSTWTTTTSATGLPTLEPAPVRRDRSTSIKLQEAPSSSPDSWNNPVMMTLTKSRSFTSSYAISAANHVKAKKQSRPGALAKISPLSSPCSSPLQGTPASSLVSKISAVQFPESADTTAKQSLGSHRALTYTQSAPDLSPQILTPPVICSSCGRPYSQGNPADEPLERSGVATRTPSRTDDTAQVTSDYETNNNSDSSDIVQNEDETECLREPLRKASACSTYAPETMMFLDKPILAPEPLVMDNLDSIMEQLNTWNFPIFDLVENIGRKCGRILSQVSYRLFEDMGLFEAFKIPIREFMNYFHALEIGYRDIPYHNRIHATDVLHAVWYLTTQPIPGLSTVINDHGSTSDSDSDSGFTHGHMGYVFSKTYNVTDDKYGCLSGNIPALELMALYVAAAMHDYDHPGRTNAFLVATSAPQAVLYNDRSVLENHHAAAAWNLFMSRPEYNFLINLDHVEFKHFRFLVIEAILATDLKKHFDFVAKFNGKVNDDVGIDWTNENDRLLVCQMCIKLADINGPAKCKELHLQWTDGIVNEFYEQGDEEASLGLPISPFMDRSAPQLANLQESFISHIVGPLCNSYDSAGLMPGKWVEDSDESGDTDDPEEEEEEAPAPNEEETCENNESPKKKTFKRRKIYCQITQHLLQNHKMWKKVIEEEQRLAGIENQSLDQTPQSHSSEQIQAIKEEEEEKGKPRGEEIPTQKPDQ

[23] = molecular target: cGMP-dependent 3',5'-cyclic phosphodiesterase (Homo sapiens) (UniProt O00408); assay: Inhibition of human recombinant PDE2A using cAMP as substrate at 10 uM after 30 mins by HTRF method
[24] = molecular target: cGMP-inhibited 3',5'-cyclic phosphodiesterase 3A (Homo sapiens) (UniProt Q14432); assay: Inhibition of human recombinant PDE3A using cAMP as substrate at 10 uM after 30 mins by HTRF method
[25] = molecular target: T3, cAMP and cAMP-inhibited cGMP 3',5'-cyclic phosphodiesterase 10A (Mus musculus, UniProt Q8CA95); assay: Inhibition of mouse recombinant GST-tagged PDE10A using [3H]-cAMP as substrate after 30 mins by scintillation proximity assay
T3 sequence (Q8CA95 whole entry): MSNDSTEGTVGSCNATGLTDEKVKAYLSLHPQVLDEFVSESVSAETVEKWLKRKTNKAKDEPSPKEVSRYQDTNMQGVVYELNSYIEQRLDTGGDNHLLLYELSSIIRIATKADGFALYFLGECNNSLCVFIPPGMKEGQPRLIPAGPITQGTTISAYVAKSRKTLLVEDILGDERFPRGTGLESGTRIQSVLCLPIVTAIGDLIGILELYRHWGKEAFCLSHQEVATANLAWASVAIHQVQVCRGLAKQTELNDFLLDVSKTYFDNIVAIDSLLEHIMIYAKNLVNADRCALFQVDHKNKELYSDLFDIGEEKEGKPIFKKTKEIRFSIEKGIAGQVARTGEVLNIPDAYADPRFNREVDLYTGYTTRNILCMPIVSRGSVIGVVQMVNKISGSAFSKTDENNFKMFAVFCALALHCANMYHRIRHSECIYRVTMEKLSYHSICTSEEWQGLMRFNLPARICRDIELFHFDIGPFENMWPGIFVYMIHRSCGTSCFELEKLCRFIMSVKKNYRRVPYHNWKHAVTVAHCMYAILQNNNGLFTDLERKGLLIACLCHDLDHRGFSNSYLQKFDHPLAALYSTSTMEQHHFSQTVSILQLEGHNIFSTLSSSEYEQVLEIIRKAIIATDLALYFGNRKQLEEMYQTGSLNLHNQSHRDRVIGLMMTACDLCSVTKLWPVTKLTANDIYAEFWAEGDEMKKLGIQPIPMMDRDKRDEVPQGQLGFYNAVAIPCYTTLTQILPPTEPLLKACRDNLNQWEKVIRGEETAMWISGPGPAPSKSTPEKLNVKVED

[26] = molecular target: cGMP-specific 3',5'-cyclic phosphodiesterase (Homo sapiens) (UniProt O76074); assay: Inhibition of human recombinant PDE5A using […] as substrate at 1 uM after 30 mins by scintillation proximity assay

| Structure (SMILES) | inhibition [6] | inhibition [7] | inhibition [8] | inhibition [9] | remaining at 1 h [10] | inhibition [11] | remaining at 1 h [12] | inhibition [13] | inhibition [14] | remaining at 1 h [15] | IC50 [16] | remaining at 1 h [17] | inhibition [18] | remaining at 1 h [19] | IC50 [20] | inhibition [21] | inhibition [22] | inhibition [23] | inhibition [24] | IC50 [25] | further results |
| --- | --- | --- | --- | --- | --- | --- | --- | --- | --- | --- | --- | --- | --- | --- | --- | --- | --- | --- | --- | --- | --- |
| Cn1cc(-c2ccncc2)c(-c2ccc(OCc3ccc4ccccc4n3)cc2)n1 [MARDEPODECT] | – | – | – | – | – | – | – | – | – | – | – | – | – | – | – | – | – | – | – | – | Activity (Rattus norvegicus [1]): 96%; Activity (Rattus norvegicus [2]): 80%; Activity (Rattus norvegicus [3]): 32%; Activity (Rattus norvegicus [4]): 18% |
| Cc1nc2n(c(=O)c1CCN1CCC(c3noc4cc(F)ccc34)CC1)CCCC2 [RISPERIDONE] | – | – | – | – | – | – | – | – | – | – | – | – | – | – | – | – | – | – | – | – | Activity (Rattus norvegicus [5]): 67% |
| Cc1cnc2c(-c3ccc(Oc4ncccc4-c4ccncc4)cc3)cn(C)c2c1 | 0.1% | 16.7% | 10.8% | 8.3% | 48.1% | 0% | 32.3% | 24.9% | 3.7% | 62.5% | 0.8 nM | 46.2% | 98.3% | 13.7% | 0.3 nM | 28.3% | 0.9% | 43% | 6.4% | 1.2 nM | inhibition [26]: 9.6% |
| Cn1cc(-c2ccc(Oc3ncccc3-c3ccncc3)cc2)c2ncccc21 | 3% | 23.2% | 18% | 29% | 40.2% | 0.9% | 39.7% | 16.6% | 5% | 59.6% | 5.8 nM | 38.4% | 98% | 39.8% | 1.3 nM | 39.9% | 0.1% | 69.6% | 7.4% | 4.1 nM | inhibition [26]: 2.2% |
| Cn1cc(-c2ccc(Oc3ncccc3-c3ccncc3)cc2)c2ncc(Cl)cc21 | 8.5% | 3.1% | 6.9% | 3% | 67.1% | 3.5% | 54.7% | 12.3% | 10.5% | 80.9% | 7.1 nM | 64% | 95.4% | 54.5% | 2.6 nM | 17.5% | 0% | 12.6% | 0% | 6.7 nM | inhibition [26]: 2.4% |
